{"source": "patent US20250346613A1", "about": "“BORIC ACID PROTEASOME INHIBITOR AND USE THEREOF” (ARTIVILA BIOPHARMA, priority 2022, published 2025)"}
{"target": "T1, β5i subunit of the 20S proteasome (Homo sapiens, UniProt P20618+P28062)", "T1 construct": "The proteasome tested in the present disclosure was derived from Raji cells; endogenous in cells; host or cells: Raji cells", "experiment": "Proteasome inhibitory activity, β5i subunit (Raji cells treated with compound, lysed, Ac-ANW-AMC substrate)", "type": "cell-based", "settings": "proteasome from Raji cells incubated with compound 4 h", "from_the_text": "In the present disclosure, the fluorescent peptide substrate Ac-Ala-Asn-Trp-AMC (abbreviated as Ac-ANW-AMC) and the […] kit containing a fluorescent peptide substrate Suc-Leu-Leu-Val-Tyr-AMC (abbreviated as Suc-LLVY-AMC) (Promega, Item No. G8660) were used to detect the activities of the β5i subunit and β5c subunit of the 20S proteasome, respectively.\nThe proteasome tested in the present disclosure was derived from Raji cells, the fluorescent substrate Ac-ANW-AMC was purchased from Roche company, and other reagents were purchased from Sigma company. The experimental system was divided into two parts of cell lysis system and enzyme reaction system. […] The starting concentration of the compound (inhibitor) was 1 μM. It was diluted in a 3-fold serial dilution to a total of 8 concentrations, that is, the administration concentration can be 1 μM, 0.333 μM, 0.111 μM . . . , respectively, and the specific experimental process was described below.\nRaji cells (1×10^6 cells) cryopreserved in liquid nitrogen were thawed rapidly in a water bath at 37° C. The cell pellet was transferred to a 15 mL centrifuge tube, added with 9 mL of fresh medium (Gibco RPMI1640 added with 10% fetal bovine serum and 1% double antibiotics), centrifuged at 120 g for 5 min, inoculated to 25 mL cell culture flasks, and passaged once every 2-3 days.\nThe compound was weighed and dissolved in DMSO to a concentration of 10 mM. The compound was then sequentially diluted to concentrations of 200 μM, 66.67 μM, 22.22 μM, 7.41 μM, 2.47 μM, 0.82 μM, 0.27 μM, and 0.091 μM with fresh medium. Raji cells in a good growth status were inoculated into a 48-well cell culture plate at 7×10^5 cells/mL.\nRaji cells in a good growth status were taken and counted. They were then inoculated to a 48-well cell culture plate at 7×10^5 cells/mL. Each 5 μL of the various concentrations of diluted compounds above were taken and added to the culture plate inoculated with cells, and the lowest concentration of compound was 0 μM. The drug bortezomib (Velcade) and ONX-0914 were used as the positive control compounds. All cells were incubated at 37° C. for 4 h.\nThe compound-treated cells were sequentially transferred into 1.5 mL centrifuge tubes, centrifuged at 10000 rpm for 2 min, and the supernatants were removed. The cell pellet was resuspended in 1 mL of PBS, centrifuged at 10000 rpm for 2 min, and the supernatant was removed. Cells were resuspended by adding 100 μL of cell lysate (50 mM Tris of pH 7.5, 150 mM NaCl, 5 mM MgCl2, 5 mM ATP, 1 mM DTT, 0.01% NP-40, 1 mM Digitonin, and Cocktail), placed in an ice bath for 30 min, and centrifuged at 13000 rpm for 10 min.\n2 mg of fluorescent peptide substrate AC-ANW-AMC was dissolved in 424.7 μL of DMSO to obtain an 8 mM stock solution, and stored at −20° C. The stock solution was diluted 100-fold to a final concentration of […] for use in the reaction system. The fluorescent peptide substrate Suc-LLVY-AMC was prepared according to the instructions of the Promega kit.\nEach 20 μL of the prepared proteasome solution above was added to a 96-well white luciferase microplate and added with 25 μL of AC-ANW-AM substrate buffer solution (50 mM Tris of pH 7.5, 150 mM NaCl, 5 mM MgCl2, 5 mM ATP, 80 uM Ac-ANW-AMC and 1 mM DTT) and 25 μL of Suc-LLVY-AMC substrate buffer solution for 10 min of reaction at 37° C. in the dark. Fluorescence values were read at 345 nm/445 nm by using a fluorence microplate reader.\nThe data were exported and the inhibition rate in percentage was calculated according to the following formula: Inhibition rate=(maximum signal value-compound signal value)/(maximum signal value−blank signal value)×100%.\nWhere the maximum signal was obtained from cell lysates treated with DMSO only, and the blank signal was obtained from wells containing only lysates.", "units": {"IC50": "nM"}}
{"smiles": "O=C(/C=C/C(=O)N[C@@H](Cc1ccccc1)B(O)O)Nc1ccccc1", "note": "[Example 8]", "IC50": "50 to 200"}
{"tested_on": "MM.1S cell strain", "experiment": "Inhibitory activity of cell strain (CellTiter-Glo)", "type": "cell-based", "settings": "Homo sapiens, MM1.S, 72 h incubation", "protocol": "The cells used in this experiment were MM.1S cell strain and the detection reagent was CellTiter-Glo (Promega). […] The experimental process was described below. MM.1S cells in the logarithmic growth phase and in a good status were digested into individual cells by trypsin, centrifuged to remove the supernatant, and counted. Cells were diluted and 100 μL of cell suspension per well was added to a 96-well enzyme-coated plate at 1×10^5 cells per well. The wells containing only RPMI1640 complete medium were set as blank control. The 96-well plate was transferred to a 37° C. incubator containing 5% CO2 for 24 h of incubation.\nThe compound was accurately weighed and dissolved in DMSO to a concentration of 10^−2 M. 10 μL of compound was pipetted to 190 μL of DMSO to given a 5×10^−4 M compound. 6 μL of the compound (5×10^−5 M) was pipetted to a new 96-well microplate containing 194 μL of RPMI1640 complete medium and diluted in a 3-fold gradient dilution. 50 μL of the diluted compound was transferred to the 96-well microplate containing the cells such that the final compound concentrations were 5×10^−7 M, 1.67×10^−7 M, 5.55×10^−8 M, 1.85×10^−8 M, 6.17×10^−9 M, 2.06×10^−9 M, 6.86×10^−10 M, 2.29×10^−10 M, and 0 M. For the 0 M, no compound was added, and the same concentration of DMSO was added. The marketed drug bortezomib was used as a positive control. The 96-well microplate added with compounds was placed in the 37° C. incubator for 72 h of incubation.\nAt the predetermined detection time, the 96-well microplate to be detected was placed at room temperature, added with 40 μL of detection reagent (CellTiter-Glo) per well, and covered with a dark lid or piece of aluminium foil. The contents were mixed on an orbit oscillator for 10 min for complete cell lysis, with a vibration speed of 150 rpm. Luminescence values were detected on a multifunctional microplate reader (BioTek Synergy H1 Hybrid Multi-Mode Reade).\nThe data were exported and the percentage inhibition was calculated according to the following formula: Inhibition rate=(maximum signal value-compound signal value)/(maximum signal value−blank signal value)×100%, • wherein maximum signal was obtained from alone DMSO-treated cells, and blank signal was obtained from wells containing only culture medium.", "units": {"IC50": "nM"}}
{"smiles": "COc1cccc(CNC(=O)C(Cc2ccccc2)C(=O)N[C@@H](Cc2coc3ccccc23)B(O)O)c1", "note": "(stereo partly drawn) [Example 71, ((1R)-2-(benzofuran-3-yl)-1-(2-benzyl-3-((3-methoxybenzyl)amino)-3-oxopropionamido)ethyl)boric acid]", "IC50": "≤ 50"}
{"smiles": "O=C(/C=C/C(=O)N[C@@H](Cc1ccccc1)B(O)O)NCc1cc(Cl)ccc1Cl", "note": "[Example 12]", "IC50": "200 to 500"}
{"smiles": "COc1cccc(CNC(=O)C(F)C(=O)N[C@@H](Cc2ccccc2)B(O)O)c1", "note": "(stereo partly drawn) [Example 102, ((1R)-1-(2-fluoro-3-((3-methoxybenzyl)amino)-3-oxopropionamido)-2-phenylethyl)boric acid]", "IC50": "≤ 50"}
{"smiles": "Cc1ccc(C[C@H](NC(=O)C(F)C(=O)NCc2cccc(OC(F)(F)F)c2)B(O)O)cc1", "note": "(stereo partly drawn) [Example 96, ((1R)-1-(2-fluoro-3-oxo-3-((3-(trifluoromethoxy)benzyl)amino)propionamido)-2-(p-tolyl)ethyl)boric acid]", "IC50": "≤ 50"}
{"smiles": "CC(C(=O)NCc1cccc(OC(F)(F)F)c1)C(=O)N[C@@H](Cc1ccc(-c2ccccc2)cc1)B(O)O", "note": "(stereo partly drawn) [Example 74, ((1R)-2-([1,1′-biphenyl]-4-yl)-1-(2-methyl-3-oxo-3-((3-(trifluoromethoxy)benzyl)amino)propanamido)ethyl)boronic acid]", "IC50": "≤ 50"}
{"smiles": "[2H]/C(C(=O)NCc1ccccc1)=C(/[2H])C(=O)N[C@@H](Cc1ccccc1)B(O)O", "note": "[Example 17, (R,E)-(1-(4-(benzylamino)-4-oxobut-2-enamido-2,3-D2)-2-phenylethyl)boric acid]", "IC50": "50 to 200"}
{"smiles": "O=C(NCc1cccc(OC(F)(F)F)c1)C(F)C(=O)N[C@@H](Cc1ccccc1)B(O)O", "note": "(stereo partly drawn) [Example 95, ((1R)-1-(2-fluoro-3-oxo-3-((3-(trifluoromethoxy)benzyl)amino)propionamido)-2-phenylethyl)boric acid]", "IC50": "≤ 50"}
{"smiles": "COc1cccc(CNC(=O)C(Cc2ccccc2)C(=O)N[C@@H](Cc2ccc(-c3ccccc3)cc2)B(O)O)c1", "note": "(stereo partly drawn) [Example 72, ((1R)-2-([1,1′-biphenyl]-4-yl)-1-(2-benzyl-3-((3-methoxybenzyl)amino)-3-oxopropionamido)ethyl)boric acid]", "IC50": "≤ 50"}
{"smiles": "COc1cccc(CNC(=O)C(F)C(=O)N[C@@H](Cc2ccc(C)cc2)B(O)O)c1", "note": "(stereo partly drawn) [Example 103, ((1R)-1-(2-fluoro-3-((3-methoxybenzyl)amino)-3-oxopropionamido)-2-(p-tolyl)ethyl)boric acid]", "IC50": "≤ 50"}
{"smiles": "COc1cccc(CCNC(=O)C(F)C(=O)N[C@@H](Cc2coc3ccccc23)B(O)O)c1", "note": "(stereo partly drawn) [Example 101, ((1R)-2-(Benzofuran-3-yl)-1-(2-fluoro-3-((3-methoxyphenylethyl)amino)-3-oxopropionamido)ethyl)boric acid]", "IC50": "≤ 50"}
{"smiles": "COc1cccc(NC(=O)C(C)C(=O)N[C@@H](Cc2ccccc2)B(O)O)c1", "note": "(stereo partly drawn) [Example 67, ((1R)-1-(3-((3-methoxyphenyl)amino)-2-methyl-3-oxopropionamido)-2-phenylethyl)boric acid]", "IC50": "50 to 200"}
{"smiles": "COc1cccc(CNC(=O)C(F)C(=O)N[C@@H](Cc2coc3ccccc23)B(O)O)c1", "note": "(stereo partly drawn) [Example 104, ((1R)-2-(benzofuran-3-yl)-1-(2-fluoro-3-((3-methoxybenzyl)amino)-3-oxopropionamido)ethyl)boric acid]", "IC50": "≤ 50"}
{"smiles": "COc1ccc(NC(=O)C(C)C(=O)N[C@@H](Cc2ccc(C)cc2)B(O)O)cc1", "note": "(stereo partly drawn) [Example 70, ((1R)-1-(3-((4-methoxyphenyl)amino)-2-methyl-3-oxopropionamido)-2-(p-tolyl)ethyl)boric acid]", "IC50": "50 to 200"}
{"smiles": "Cc1ccc(C[C@H](NC(=O)C(C)C(=O)NCc2cccc(OC(F)(F)F)c2)B(O)O)cc1", "note": "(stereo partly drawn) [Example 86, ((1R)-1-(2-methyl-3-oxo-3-((3-(trifluoromethoxy)benzyl)amino)propionamido)-2-(p-tolyl)ethyl)boric acid]", "IC50": "≤ 50"}
{"smiles": "CC(C(=O)NCc1cccc(C(F)(F)F)c1)C(=O)N[C@@H](Cc1ccc(-c2ccccc2)cc1)B(O)O", "note": "(stereo partly drawn) [Example 78, ((1R)-2-([1,1′-biphenyl]-4-yl)-1-(2-methyl-3-oxo-3-((3-(trifluoromethyl)benzyl)amino)propionamido)ethyl)boric acid]", "IC50": "≤ 50"}
{"smiles": "Cc1ccc(CNC(=O)/C=C/C(=O)N[C@@H](CC(C)C)B(O)O)cc1", "note": "[Example 11]", "IC50": "200 to 500"}
{"smiles": "COc1cccc(CNC(=O)C(C(=O)N[C@@H](Cc2ccc(-c3ccccc3)cc2)B(O)O)C(C)C)c1", "note": "(stereo partly drawn) [Example 76, ((1R)-2-([1,1′-biphenyl]-4-yl)-1-(2-((3-methoxybenzyl)carbamoyl)-3-methylbutanamido)ethyl)boric acid]", "IC50": "≤ 50"}
{"smiles": "O=C(NCc1cccc(OC(F)(F)F)c1)C(F)C(=O)N[C@@H](Cc1coc2ccccc12)B(O)O", "note": "(stereo partly drawn) [Example 97, ((1R)-2-(Benzofuran-3-yl)-1-(2-fluoro-3-oxo-3-((3-(trifluoromethoxy)benzyl)amino)propionamido)ethyl)boric acid]", "IC50": "≤ 50"}
{"smiles": "COc1cccc(CCNC(=O)C(C)C(=O)N[C@@H](Cc2ccccc2)B(O)O)c1", "note": "(stereo partly drawn) [Example 61, ((1R)-1-(3-((3-methoxyphenylethyl)amino)-2-methyl-3-oxopropionamido)-2-phenylethyl)boric acid]", "IC50": "50 to 200"}
{"smiles": "O=C(/C=C/C(=O)N[C@@H](Cc1ccccc1)B(O)O)Nc1ccccc1", "note": "[Example 8]", "IC50": "50 to 200"}
{"smiles": "Cc1ccc(C[C@H](NC(=O)C(F)(F)C(=O)NCc2cccc(OC(F)(F)F)c2)B(O)O)cc1", "note": "[Example 98, (R)-(1-(2,2-difluoro-3-oxo-3-((3-(trifluoromethoxy)benzyl)amino)propionamido)-2-(p-tolyl)ethyl)boric acid]", "IC50": "200 to 500"}
